# Measured values as given in ChEMBL document CHEMBL4376834, “Discovery of 4H-Chromen-4-one Derivatives as a New Class of Selective Rho Kinase (ROCK) Inhibitors, which Showed Potent Activity in ex Vivo Diabetic Retinopathy Models” (J Med Chem, 2019).
# Columns and labels:
# [1] = target: cGMP-dependent protein kinase 1 (Homo sapiens, UniProt Q13976); experiment: Inhibition of recombinant full length human PKG1beta using RRRLSFAEPG as substrate incubated for 40 mins in presence of [gamma-33P]ATP by radiometric scintillation counting analysis
# Sequence of cGMP-dependent protein kinase 1 (Q13976 whole entry): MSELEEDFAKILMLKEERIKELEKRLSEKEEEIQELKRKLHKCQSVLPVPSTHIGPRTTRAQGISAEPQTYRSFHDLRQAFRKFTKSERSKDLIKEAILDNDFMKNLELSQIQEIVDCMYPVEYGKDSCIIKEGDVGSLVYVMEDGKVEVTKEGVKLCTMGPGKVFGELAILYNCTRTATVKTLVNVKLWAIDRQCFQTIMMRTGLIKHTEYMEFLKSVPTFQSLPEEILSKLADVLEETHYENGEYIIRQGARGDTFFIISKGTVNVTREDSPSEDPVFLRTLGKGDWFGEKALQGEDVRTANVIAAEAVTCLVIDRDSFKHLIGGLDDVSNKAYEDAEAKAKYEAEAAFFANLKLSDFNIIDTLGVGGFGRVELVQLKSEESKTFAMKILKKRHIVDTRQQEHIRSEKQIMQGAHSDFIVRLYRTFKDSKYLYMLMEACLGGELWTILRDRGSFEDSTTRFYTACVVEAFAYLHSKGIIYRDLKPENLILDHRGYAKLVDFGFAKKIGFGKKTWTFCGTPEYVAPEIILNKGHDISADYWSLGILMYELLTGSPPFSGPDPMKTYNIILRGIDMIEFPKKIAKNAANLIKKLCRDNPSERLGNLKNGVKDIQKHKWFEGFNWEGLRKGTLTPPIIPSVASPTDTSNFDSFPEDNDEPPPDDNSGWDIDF
# Activin receptor type-1B = Activin receptor type-1B (Homo sapiens, UniProt P36896); experiment: Inhibition of human recombinant ALK4 (150 to end residues) using casein as substrate incubated for 40 mins in presence of [gamma-33P]ATP by radiometric scintillation counting analysis
# Sequence of Activin receptor type-1B (P36896 whole entry): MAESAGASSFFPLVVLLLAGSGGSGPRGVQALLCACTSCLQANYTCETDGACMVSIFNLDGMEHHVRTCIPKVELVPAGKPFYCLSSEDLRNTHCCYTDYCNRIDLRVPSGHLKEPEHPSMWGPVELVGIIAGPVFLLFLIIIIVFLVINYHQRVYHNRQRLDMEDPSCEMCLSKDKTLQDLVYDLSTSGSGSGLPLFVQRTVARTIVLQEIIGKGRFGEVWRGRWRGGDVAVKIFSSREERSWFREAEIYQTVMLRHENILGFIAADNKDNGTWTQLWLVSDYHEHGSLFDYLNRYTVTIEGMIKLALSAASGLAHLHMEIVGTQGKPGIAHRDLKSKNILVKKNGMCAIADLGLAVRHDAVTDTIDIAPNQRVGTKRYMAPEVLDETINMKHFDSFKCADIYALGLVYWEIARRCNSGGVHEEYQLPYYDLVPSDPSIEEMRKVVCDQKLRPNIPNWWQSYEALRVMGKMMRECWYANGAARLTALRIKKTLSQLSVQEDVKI
# [2] = target: Cyclin-dependent kinase-like 2 (Homo sapiens, UniProt Q92772); experiment: Inhibition of recombinant full length human CDKL2 in presence of 10 uM ATP by radiometric scintillation counting analysis
# Sequence of Cyclin-dependent kinase-like 2 (Q92772 whole entry): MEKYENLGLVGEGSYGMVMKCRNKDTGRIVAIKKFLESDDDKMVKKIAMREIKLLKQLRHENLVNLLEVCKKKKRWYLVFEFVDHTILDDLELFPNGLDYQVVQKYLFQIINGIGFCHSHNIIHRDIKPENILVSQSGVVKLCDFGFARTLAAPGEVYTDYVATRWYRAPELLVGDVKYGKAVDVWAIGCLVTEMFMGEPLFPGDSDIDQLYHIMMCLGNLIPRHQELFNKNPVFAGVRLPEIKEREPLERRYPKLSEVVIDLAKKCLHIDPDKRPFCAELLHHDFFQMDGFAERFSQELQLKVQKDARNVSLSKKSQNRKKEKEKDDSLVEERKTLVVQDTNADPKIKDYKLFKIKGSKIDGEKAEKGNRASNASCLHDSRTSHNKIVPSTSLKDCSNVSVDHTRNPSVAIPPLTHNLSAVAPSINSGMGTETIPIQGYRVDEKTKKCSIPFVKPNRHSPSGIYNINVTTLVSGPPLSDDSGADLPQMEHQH
# Casein kinase 2 = Casein kinase 2 (Homo sapiens, UniProt P67870+P68400+P19784+Q8NEV1); experiment: Inhibition of recombinant human CK2 in presence of [gamma-33ATP] by radiometric scintillation counting analysis; assay type: protein assay
# [3] = target: Discoidin domain-containing receptor 2 (Homo sapiens, UniProt Q16832); experiment: Inhibition of recombinant human DDR2 S642A mutant (467 to end residues) using KKSRGDYMTMQIG as substrate after 40 mins in presence of [gamma-33ATP] by radiometric scintillation counting analysis
# Myotonin-protein kinase = Myotonin-protein kinase (Homo sapiens, UniProt Q09013); experiment: Inhibition of recombinant human DMPK (1 to 549 residues) using KKSRGDYMTMQIG as substrate after 40 mins in presence of [gamma-33ATP] by radiometric scintillation counting analysis
# [4] = target: Serine/threonine-protein kinase 17A (Homo sapiens, UniProt Q9UEE5); experiment: Inhibition of recombinant full length human DRAK1 using KKLNRTLSFAEPG as substrate after 40 mins in presence of [gamma-33ATP] by radiometric scintillation counting analysis
# Sequence of Serine/threonine-protein kinase 17A (Q9UEE5 whole entry): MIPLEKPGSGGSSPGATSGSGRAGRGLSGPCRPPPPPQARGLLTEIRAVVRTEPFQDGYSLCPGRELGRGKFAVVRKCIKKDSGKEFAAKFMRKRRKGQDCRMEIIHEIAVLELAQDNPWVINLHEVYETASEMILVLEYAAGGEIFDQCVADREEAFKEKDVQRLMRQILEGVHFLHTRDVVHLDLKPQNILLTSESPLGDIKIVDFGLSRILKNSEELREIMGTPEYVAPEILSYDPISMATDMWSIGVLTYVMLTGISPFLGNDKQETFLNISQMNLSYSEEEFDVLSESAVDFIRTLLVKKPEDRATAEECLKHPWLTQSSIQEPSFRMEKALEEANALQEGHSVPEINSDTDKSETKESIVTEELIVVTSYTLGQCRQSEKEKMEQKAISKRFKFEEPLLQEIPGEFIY
# [5] = target: Protein kinase C delta type (Homo sapiens, UniProt Q05655); experiment: Inhibition of recombinant human PKCdelta (2 to end residues) using ERMRPRKRQGSVRR as substrate incubated for 40 mins in presence of [gamma33P]ATP by radiometric scintillation counting analysis
# [6] = Inhibition of recombinant full length human PKBalpha S478G mutant using GRPRTSSFAEGKK as substrate incubated for 40 mins in presence of [gamma33P]ATP by radiometric scintillation counting analysis
# [7] = target: Serine/threonine-protein kinase 26 (Homo sapiens, UniProt Q9P289); experiment: Inhibition of recombinant human MST4 (4 to 304 residues) using RLGRDKYKTLRQI as substrate measured after 40 mins in presence of [gamma33P]ATP by radiometric scintillation counting analysis
# [8] = target: Serine/threonine-protein kinase PAK 6 (Homo sapiens, UniProt Q9NQU5); experiment: Inhibition of recombinant human PAK6 (382 to end residues) using RRRLSFAEPG as substrate measured after 40 mins in presence of [gamma33P]ATP by radiometric scintillation counting analysis
# Ephrin type-A receptor 4 = Ephrin type-A receptor 4 (Homo sapiens, UniProt P54764); experiment: Inhibition of recombinant human EphA4 (601 to 892 residues) using poly(Glu, Tyr) 4:1 as substrate measured after 40 mins in presence of [gamma33ATP] by radiometric scintillation counting analysis
# Sequence of Ephrin type-A receptor 4 (P54764 whole entry, the tested form may be a part): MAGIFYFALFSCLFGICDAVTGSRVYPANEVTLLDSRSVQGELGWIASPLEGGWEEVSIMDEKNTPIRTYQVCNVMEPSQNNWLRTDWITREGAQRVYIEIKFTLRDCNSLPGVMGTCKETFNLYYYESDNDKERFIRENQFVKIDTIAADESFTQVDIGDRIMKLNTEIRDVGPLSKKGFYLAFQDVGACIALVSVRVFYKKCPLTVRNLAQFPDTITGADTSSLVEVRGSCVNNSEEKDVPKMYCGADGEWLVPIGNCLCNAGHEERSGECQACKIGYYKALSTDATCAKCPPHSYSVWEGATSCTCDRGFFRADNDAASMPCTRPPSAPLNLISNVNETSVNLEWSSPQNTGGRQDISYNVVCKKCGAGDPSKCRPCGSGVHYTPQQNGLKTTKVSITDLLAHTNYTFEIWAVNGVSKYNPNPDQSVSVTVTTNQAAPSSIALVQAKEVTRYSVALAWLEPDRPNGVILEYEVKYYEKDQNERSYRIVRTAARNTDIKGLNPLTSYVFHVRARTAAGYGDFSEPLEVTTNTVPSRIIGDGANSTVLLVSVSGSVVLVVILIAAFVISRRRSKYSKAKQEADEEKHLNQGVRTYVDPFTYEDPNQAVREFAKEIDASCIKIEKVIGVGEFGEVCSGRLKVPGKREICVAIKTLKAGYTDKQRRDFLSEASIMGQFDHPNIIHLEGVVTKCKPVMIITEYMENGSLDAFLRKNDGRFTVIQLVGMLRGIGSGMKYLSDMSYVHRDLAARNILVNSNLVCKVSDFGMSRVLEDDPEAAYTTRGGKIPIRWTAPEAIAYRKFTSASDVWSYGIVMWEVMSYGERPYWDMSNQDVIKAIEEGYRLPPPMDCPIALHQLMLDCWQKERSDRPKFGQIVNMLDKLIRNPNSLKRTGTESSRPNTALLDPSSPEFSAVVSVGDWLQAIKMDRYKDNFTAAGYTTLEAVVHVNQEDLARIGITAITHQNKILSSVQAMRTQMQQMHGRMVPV
# Ephrin type-B receptor 3 = Ephrin type-B receptor 3 (Homo sapiens, UniProt P54753); experiment: Inhibition of recombinant human EphB3 (599 to 920 residues) using poly(Glu, Tyr) 4:1 as substrate after 40 mins in presence of [gamma-33ATP] by radiometric scintillation counting analysis
# [9] = target: Fibroblast growth factor receptor 1 (Homo sapiens, UniProt P11362, V561M); experiment: Inhibition of recombinant human FGFR1 V561M mutant (456 to 765 residues) using GGEEEEYFELVKK as substrate after 40 mins in presence of [gamma-33ATP] by radiometric scintillation counting analysis
# [10] = target: G protein-coupled receptor kinase 3 (Homo sapiens, UniProt P35626); experiment: Inhibition of recombinant full length human GRK3 using casein as substrate after 40 mins in presence of [gamma-33ATP] by radiometric scintillation counting analysis
# [11] = target: Tyrosine-protein kinase HCK (Homo sapiens, UniProt P08631); experiment: Inhibition of human recombinant activated HCK (230 to 497 residues) using GGMEDIYFEFMGG as substrate after 40 mins by [gamma-33ATP] radiometric assay
# Sequence of Tyrosine-protein kinase HCK (P08631 whole entry, the tested form may be a part): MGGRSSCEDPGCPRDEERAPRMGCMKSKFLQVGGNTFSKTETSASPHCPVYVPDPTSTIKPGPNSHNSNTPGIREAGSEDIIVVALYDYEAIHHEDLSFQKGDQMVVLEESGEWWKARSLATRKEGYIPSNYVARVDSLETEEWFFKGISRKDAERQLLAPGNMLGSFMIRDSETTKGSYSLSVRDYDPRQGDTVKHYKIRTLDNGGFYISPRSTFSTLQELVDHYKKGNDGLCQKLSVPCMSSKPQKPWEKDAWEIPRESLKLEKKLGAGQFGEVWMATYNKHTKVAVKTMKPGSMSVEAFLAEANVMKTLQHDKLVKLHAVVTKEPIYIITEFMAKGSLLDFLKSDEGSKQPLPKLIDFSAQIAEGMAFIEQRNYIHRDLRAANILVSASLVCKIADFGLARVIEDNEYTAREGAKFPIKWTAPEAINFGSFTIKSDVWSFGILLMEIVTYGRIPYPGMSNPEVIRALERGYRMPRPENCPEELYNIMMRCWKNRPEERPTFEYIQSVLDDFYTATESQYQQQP
# [12] = target: Homeodomain-interacting protein kinase 1 (Homo sapiens, UniProt Q86Z02); experiment: Inhibition of human recombinant HIPK1 (158 to 555 residues) using myelin basic protein as substrate after 40 mins by [gamma-33ATP] radiometric assay
# Sequence of Homeodomain-interacting protein kinase 1 (Q86Z02 whole entry, the tested form may be a part): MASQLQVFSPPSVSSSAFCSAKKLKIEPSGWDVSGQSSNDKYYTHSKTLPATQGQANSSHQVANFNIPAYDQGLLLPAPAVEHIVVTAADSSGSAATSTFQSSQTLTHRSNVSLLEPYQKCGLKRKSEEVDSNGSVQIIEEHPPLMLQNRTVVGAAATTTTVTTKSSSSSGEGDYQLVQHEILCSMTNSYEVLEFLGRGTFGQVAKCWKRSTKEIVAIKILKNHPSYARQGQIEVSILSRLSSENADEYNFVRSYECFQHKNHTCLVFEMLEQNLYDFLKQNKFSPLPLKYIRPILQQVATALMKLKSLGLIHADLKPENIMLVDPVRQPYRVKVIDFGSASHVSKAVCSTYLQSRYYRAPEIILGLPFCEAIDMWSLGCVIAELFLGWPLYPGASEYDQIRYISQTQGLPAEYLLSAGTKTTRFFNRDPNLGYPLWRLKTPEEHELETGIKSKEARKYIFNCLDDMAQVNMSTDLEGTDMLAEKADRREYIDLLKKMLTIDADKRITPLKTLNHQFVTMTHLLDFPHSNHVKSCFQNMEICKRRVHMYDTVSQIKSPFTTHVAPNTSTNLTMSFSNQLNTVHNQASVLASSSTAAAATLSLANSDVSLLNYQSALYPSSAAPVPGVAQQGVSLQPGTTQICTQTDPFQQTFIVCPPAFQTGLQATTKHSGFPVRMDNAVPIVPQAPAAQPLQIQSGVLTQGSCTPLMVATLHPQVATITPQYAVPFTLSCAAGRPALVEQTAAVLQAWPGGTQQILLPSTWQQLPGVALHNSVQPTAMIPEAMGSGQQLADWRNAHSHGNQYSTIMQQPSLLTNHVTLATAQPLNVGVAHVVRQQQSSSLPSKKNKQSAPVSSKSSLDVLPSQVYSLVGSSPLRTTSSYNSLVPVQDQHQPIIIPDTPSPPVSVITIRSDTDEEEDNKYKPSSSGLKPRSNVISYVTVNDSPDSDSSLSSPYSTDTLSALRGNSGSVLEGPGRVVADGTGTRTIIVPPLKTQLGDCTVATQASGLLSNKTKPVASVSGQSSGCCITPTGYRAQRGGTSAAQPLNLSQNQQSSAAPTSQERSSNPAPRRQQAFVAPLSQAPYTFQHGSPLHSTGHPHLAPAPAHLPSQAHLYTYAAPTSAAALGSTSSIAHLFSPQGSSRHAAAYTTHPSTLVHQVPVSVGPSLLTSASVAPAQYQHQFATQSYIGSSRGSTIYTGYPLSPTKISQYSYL
# [13] = target: Tyrosine-protein kinase JAK1 (Homo sapiens, UniProt P23458); experiment: Inhibition of human recombinant JAK1 (866 to end residues) using GEEPLYWSFPAKK as substrate after 40 mins by [gamma-33ATP] by radiometric scintillation counting analysis
# [14] = Inhibition of human MAPK2
# [15] = Inhibition of recombinant human Plk4 S34T mutant (1 to 273 residues) using casein as substrate incubated for 40 mins in presence of [gamma33P]ATP by radiometric scintillation counting analysis
# [16] = target: Receptor-interacting serine/threonine-protein kinase 1 (Homo sapiens, UniProt Q13546); experiment: Inhibition of recombinant human RIPK1 (8 to 322 residues) using myelin basic protein as substrate incubated for 40 mins in presence of [gamma33P]ATP by radiometric scintillation counting analysis
# [17] = target: Macrophage-stimulating protein receptor (Homo sapiens, UniProt Q04912); experiment: Inhibition of recombinant human Ron (983 to end residues) using GGMEDIYFEFMGGKKK as substrate incubated for 40 mins in presence of [gamma33P]ATP by radiometric scintillation counting analysis
# [18] = target: Serine/threonine-protein kinase 25 (Homo sapiens, UniProt O00506); experiment: Inhibition of recombinant human STK25 (1 to 308 residues) using RLGRDKYKTLRQI as substrate incubated for 40 mins in presence of [gamma33P]ATP by radiometric scintillation counting analysis
# [19] = target: Testis-specific serine/threonine-protein kinase 4 (Homo sapiens, UniProt Q6SA08); experiment: Inhibition of recombinant full-length human TSSK4 using KKLNRTLSFAEPG as substrate incubated for 40 mins in presence of [gamma33P]ATP by radiometric scintillation counting analysis
# Wee1-like protein kinase = Wee1-like protein kinase (Homo sapiens, UniProt P30291); experiment: Inhibition of recombinant human WEE1 (214 to end residues) using LSNLYHQGKFLQT as substrate incubated for 40 mins in presence of [gamma33P]ATP by radiometric scintillation counting analysis
# [20] = target: Serine/threonine-protein kinase WNK2 (Homo sapiens, UniProt Q9Y3S1); experiment: Inhibition of recombinant human WNK2 (166 to 489 residues) using myelin basic protein as substrate incubated for 40 mins in presence of [gamma33P]ATP by radiometric scintillation counting analysis
# [21] = target: Phosphatidylinositol 4-phosphate 3-kinase C2 domain-containing subunit alpha (Homo sapiens, UniProt O00443); experiment: Inhibition of human PI3KC2
compound,measurement,setting,value
CN(C)c1ccc(C(=O)Nc2cccc(NC(=O)COc3ccc4c(=O)ccoc4c3)c2)cc1,IC50,[1],0.66 µM
same,IC50,Activin receptor type-1B,> 10 µM
same,IC50,[2],> 10 µM
same,IC50,Casein kinase 2,> 10 µM
same,IC50,[3],> 10 µM
same,IC50,Myotonin-protein kinase,> 10 µM
same,IC50,[4],> 10 µM
same,IC50,[5],> 10 µM
same,IC50,[6],> 10 µM
same,IC50,[7],> 10 µM
same,IC50,[8],> 10 µM
same,IC50,Ephrin type-A receptor 4,> 10 µM
same,IC50,Ephrin type-B receptor 3,> 10 µM
same,IC50,[9],> 10 µM
same,IC50,[10],> 10 µM
same,IC50,[11],> 10 µM
same,IC50,[12],> 10 µM
same,IC50,[13],> 10 µM
same,IC50,[14],> 10 µM
same,IC50,[15],> 10 µM
same,IC50,[16],> 10 µM
same,IC50,[17],> 10 µM
same,IC50,[18],> 10 µM
same,IC50,[19],> 10 µM
same,IC50,Wee1-like protein kinase,> 10 µM
same,IC50,[20],> 10 µM
same,IC50,[21],> 10 µM
